Where “and” joins values, the source holds several entries; their conditions need not be identical. Equal values may be shown once. Inconclusive results and toxic doses are left out. The calls were made as follows: active = survival T/C of 150% or more; inactive = T/C below 125% in these data.
System: BDF1 mice, P388 leukemia ip, median survival T/C
Assay: NCI In Vivo Anticancer Drug Screen. Data for tumor model P388 Leukemia (intraperitoneal) in B6D2F1 (BDF1) mice
Settings: endpoint: median survival time, higher = longer survival
Method in brief: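 Antitumour effect was judged in vivo: survival in drug-treated mice, normalised to that of vehicle-dosed controls, gives the reported T/C.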

[1] = dose: 50.0 mg/kg/injection, schedule: Q01DX009 (ip), vehicle: saline
[2] = dose: 100.0 mg/kg/injection, schedule: Q01DX009 (ip), vehicle: saline
[3] = dose: 100.0 mg/kg/injection, schedule: Q01DX009 (ip), vehicle: saline with Tween-80
[4] = dose: 200.0 mg/kg/injection, schedule: Q01DX009 (ip), vehicle: saline with Tween-80
[5] = dose: 400.0 mg/kg/injection, schedule: Q01DX009 (ip), vehicle: saline with Tween-80
[6] = dose: 100.0 mg/kg/injection, schedule: Q01DX001 (ip), vehicle: saline with Tween-80
[7] = dose: 25.0 mg/kg/injection, schedule: Q01DX009 (ip), vehicle: saline with Tween-80
[8] = dose: 50.0 mg/kg/injection, schedule: Q01DX009 (ip), vehicle: saline with Tween-80
[9] = dose: 50.0 mg/kg/injection, schedule: Q04DX003 (ip), vehicle: saline with Tween-80
[10] = dose: 100.0 mg/kg/injection, schedule: Q04DX003 (ip), vehicle: saline with Tween-80
[11] = dose: 200.0 mg/kg/injection, schedule: Q04DX003 (ip), vehicle: saline with Tween-80

Measured: T/C

CSc1nnc([N+](=O)[O-])s1
inactive: dose: 1.56 mg/kg/injection, schedule: Q01DX009 (ip), vehicle: Klucel (hydroxypropylcellulose) (HPC) 110 % of control | dose: 3.12 mg/kg/injection, schedule: Q01DX009 (ip), vehicle: Klucel (hydroxypropylcellulose) (HPC) 100 % of control | dose: 6.25 mg/kg/injection, schedule: Q01DX009 (ip), vehicle: Klucel (hydroxypropylcellulose) (HPC) 110 % of control

CC(=O)C(O)N1C(=O)C=CC1=O (centres undefined)
inactive: dose: 0.31 mg/kg/injection, schedule: Q04DX003 (ip), vehicle: saline 95 % of control | dose: 0.62 mg/kg/injection, schedule: Q04DX003 (ip), vehicle: saline 100 % of control | dose: 1.25 mg/kg/injection, schedule: Q04DX003 (ip), vehicle: saline 100 % of control | dose: 2.5 mg/kg/injection, schedule: Q04DX003 (ip), vehicle: saline 91 % of control | dose: 5.0 mg/kg/injection, schedule: Q04DX003 (ip), vehicle: saline 91 % of control

Cc1ccc(NC(=O)OCCSCCOC(=O)Nc2ccc(C)cc2)cc1
inactive: dose: 25.0 mg/kg/injection, schedule: Q04DX003 (ip), vehicle: other 95 % of control | dose: 50.0 mg/kg/injection, schedule: Q04DX003 (ip), vehicle: other 90 % of control | dose: 100.0 mg/kg/injection, schedule: Q04DX003 (ip), vehicle: other 90 % of control | dose: 200.0 mg/kg/injection, schedule: Q04DX003 (ip), vehicle: other 90 % of control | dose: 400.0 mg/kg/injection, schedule: Q04DX003 (ip), vehicle: other 100 % of control

CCCCN(CCCC)CCOC(=O)c1ccc([N+](=O)[O-])cc1
inactive: dose: 50.0 mg/kg/injection, schedule: Q01DX001 (ip), vehicle: saline 100 % of control | dose: 100.0 mg/kg/injection, schedule: Q01DX001 (ip), vehicle: saline 100 % of control | dose: 200.0 mg/kg/injection, schedule: Q01DX001 (ip), vehicle: saline 100 % of control

Cc1cc(C)c(C#N)c(=O)[nH]1
inactive: [1] 99 % of control | [2] 94 % of control

COc1ccc(-c2cc(C(=O)O)c3cc4ccccc4cc3n2)cc1Br
inactive: [3] 100 % of control | [4] 100 % of control | [5] 97 % of control | dose: 600.0 mg/kg/injection, schedule: Q01DX009 (ip), vehicle: saline with Tween-80 109 % of control

Clc1nc2nnnn2c2ccccc12
inactive: dose: 20.0 mg/kg/injection, schedule: Q01DX009 (ip), vehicle: saline 94 % of control | dose: 40.0 mg/kg/injection, schedule: Q01DX009 (ip), vehicle: saline 95 % of control

ICC1(CI)CCCCC1
inactive: [6] 100 % of control | dose: 200.0 mg/kg/injection, schedule: Q01DX001 (ip), vehicle: saline with Tween-80 108 % of control

CC(CO)(CI)[n+]1ccccc1 (centres undefined)
inactive: [7] 103 % of control | [8] 107 % of control | [9] 95 % of control | [10] 100 % of control

Nc1ncnc2c1c(C(=O)O)cn2C1OC(CO)C(O)C1O (centres undefined)
active: dose: 66.0 mg/kg/injection, schedule: Q04DX003 (ip), vehicle: saline with Tween-80 160 % of control | [10] 150 % of control and 170 % of control

CCCNCC(O)c1cc(C(F)(F)F)nc2c(C(F)(F)F)cccc12 (centres undefined)
inactive: [8] 115 % of control | [3] 104 % of control

CCCCCCCCCCCCCCSC1CC(=O)OC1=O (centres undefined)
inactive: [8] 98 % of control | [3] 91 % of control | [4] 96 % of control

CCOC(=O)C1CC[N+](=c2cc(-c3ccc(Cl)cc3)ss2)CC1 (centres undefined)
inactive: [1] 101 % of control | dose: 50.0 mg/kg/injection, schedule: Q04DX003 (ip), vehicle: saline 106 % of control | [2] 99 % of control | dose: 100.0 mg/kg/injection, schedule: Q04DX003 (ip), vehicle: saline 116 % of control | dose: 200.0 mg/kg/injection, schedule: Q04DX003 (ip), vehicle: saline 116 % of control | dose: 400.0 mg/kg/injection, schedule: Q04DX003 (ip), vehicle: saline 116 % of control

COc1c2c(cc3oc4ccccc4c(=O)c13)CCCC2=O
inactive: dose: 50.0 mg/kg/injection, schedule: Q01DX005 (ip), vehicle: Klucel (hydroxypropylcellulose) (HPC) 90 % of control | dose: 200.0 mg/kg/injection, schedule: Q01DX005 (ip), vehicle: Klucel (hydroxypropylcellulose) (HPC) 88 % of control

C=C1C(=O)OC2/C=C(\C)C(=O)/C=C\C(C)(O)CC(OC(=O)C(C)C)C12 (centres undefined)
inactive: dose: 25.0 mg/kg/injection, schedule: Q01DX009 (ip), vehicle: saline + alcohol 100 % of control

CC(C)Cc1c[nH]c(=O)[nH]c1=O
inactive: [10] 90 % of control | [11] 90 % of control | dose: 400.0 mg/kg/injection, schedule: Q04DX003 (ip), vehicle: saline with Tween-80 90 % of control

CC(C)(C(Cl)Cl)S(=O)(=O)O (tested in a mixture with another compound)
inactive: dose: 75.0 mg/kg/injection, schedule: Q01DX009 (ip), vehicle: saline with Tween-80 100 % of control | dose: 75.0 mg/kg/injection, schedule: Q04DX003 (ip), vehicle: saline with Tween-80 110 % of control | dose: 150.0 mg/kg/injection, schedule: Q01DX009 (ip), vehicle: saline with Tween-80 100 % of control | dose: 150.0 mg/kg/injection, schedule: Q04DX003 (ip), vehicle: saline with Tween-80 100 % of control | dose: 300.0 mg/kg/injection, schedule: Q01DX009 (ip), vehicle: saline with Tween-80 109 % of control | dose: 300.0 mg/kg/injection, schedule: Q04DX003 (ip), vehicle: saline with Tween-80 110 % of control

OC1c2ccccc2C=Cc2ccccc21
inactive: dose: 25.0 mg/kg/injection, schedule: Q01DX001 (ip), vehicle: saline sonified 104 % of control | dose: 50.0 mg/kg/injection, schedule: Q01DX001 (ip), vehicle: saline sonified 104 % of control | dose: 100.0 mg/kg/injection, schedule: Q01DX001 (ip), vehicle: saline sonified 100 % of control

COc1ccc(C=O)c(Cl)c1OC
inactive: dose: 12.0 mg/kg/injection, schedule: Q04DX003 (ip), vehicle: Klucel (hydroxypropylcellulose) (HPC) 90 % of control | dose: 25.0 mg/kg/injection, schedule: Q04DX003 (ip), vehicle: Klucel (hydroxypropylcellulose) (HPC) 100 % of control | dose: 50.0 mg/kg/injection, schedule: Q04DX003 (ip), vehicle: Klucel (hydroxypropylcellulose) (HPC) 95 % of control | dose: 100.0 mg/kg/injection, schedule: Q01DX001 (ip), vehicle: Klucel (hydroxypropylcellulose) (HPC) 113 % of control | dose: 100.0 mg/kg/injection, schedule: Q04DX003 (ip), vehicle: Klucel (hydroxypropylcellulose) (HPC) 109 % of control | dose: 200.0 mg/kg/injection, schedule: Q01DX001 (ip), vehicle: Klucel (hydroxypropylcellulose) (HPC) 109 % of control | dose: 200.0 mg/kg/injection, schedule: Q04DX003 (ip), vehicle: Klucel (hydroxypropylcellulose) (HPC) 104 % of control | dose: 400.0 mg/kg/injection, schedule: Q01DX001 (ip), vehicle: Klucel (hydroxypropylcellulose) (HPC) 113 % of control

Nc1ncnc2oc(-c3ccccc3)c(-c3ccccc3)c12
inactive: dose: 6.25 mg/kg/injection, schedule: Q01DX009 (ip), vehicle: saline with Tween-80 100 % of control | dose: 12.5 mg/kg/injection, schedule: Q01DX009 (ip), vehicle: saline with Tween-80 100 % of control | [7] 97 % of control | [8] 92 % of control

CC(=O)Nc1ccc2c(c1)C(N)c1ccccc1-2 (centres undefined)
inactive: [8] 100 % of control | [3] 104 % of control | dose: 133.0 mg/kg/injection, schedule: Q01DX009 (ip), vehicle: Klucel (hydroxypropylcellulose) (HPC) 95 % of control | dose: 200.0 mg/kg/injection, schedule: Q01DX009 (ip), vehicle: Klucel (hydroxypropylcellulose) (HPC) 105 % of control | [4] 87 % of control | dose: 300.0 mg/kg/injection, schedule: Q01DX009 (ip), vehicle: Klucel (hydroxypropylcellulose) (HPC) 100 % of control

CC(C)=NNC(=O)C1CCN1C(c1ccccc1)c1ccccc1 (centres undefined)
inactive: dose: 50.0 mg/kg/injection, schedule: Q01DX001 (ip), vehicle: saline with Tween-80 117 % of control | [6] 102 % of control

C(=NCCN=Cc1c[nH]c2ccccc12)c1c[nH]c2ccccc12
inactive: [9] 111 % of control | [3] 88 % of control | [10] 103 % of control | [4] 92 % of control | [11] 100 % of control | [5] 103 % of control

From PubChem BioAssay AID328 (DTP/NCI, 2004)
